Patent US5869494A, “Uses for barbituric acid analogs” (priority 1997, dated 1999)

Experiments:
Type in all cases: cell-based
breast tumor = experiment: Human tumor cloning system, breast tumors; settings: responsive = at least 50% inhibition of tumor colony formation
Protocol: Through the initial work of Hamburger and Salmon (1977 a,b), it is possible to culture human tumors using a two-layer soft agar system. This culture system, called the human tumor cloning system, was initially utilized to select the most appropriate anticancer agent for an individual patient's tumor. […] In an in vitro-in vivo correlation study involving 800 patients retrospectively, it was determined that the true positive rate for this assay was 70%, while the true negative rate for the assay was 98% (Von Hoff et al., 1981). In a more recent prospective clinical trial of the cloning system involving 604 patients, the percent true positive for the assay was 64%, while the percent true negative for the assay was 86% (Von Hoff et al., 1983). […] This system was used to study the response of compound C1 for breast cancer and non-small cell lung carcinoma.
Collection and preparation of tumor cells: After obtaining informed consent in accordance with federal and institutional guidelines, malignant effusions, ascites and bone marrow aspirates containing tumor cells as well as solid tumor specimens were collected from patients undergoing procedure carried out as a part of their diagnostic workup or as part of treatment for their disease. […] The viability of cell suspensions thus obtained was determined with trypan blue.
Tumor cells to be cloned were suspended in 0.3% agar in enriched CMRL 1066 medium (Gibco, Grand Island, N.Y.) supplemented with 15% heat-inactivated horse serum, penicillin (100 units/ml), streptomycin (2 mg/ml) glutamine (2 mM), insulin (3 units/ml), asparagine (0.6 mg/ml), and HEPES buffer (2 mM). […] After an incubation period of 14 days, plates were removed and the number of colonies were counted in each plate. The number of colonies (defined as >50 cells) formed were compared in drug treated and untreated (control) plates and the percent colonies surviving at each drug dose tested was then calculated as a percentage of control. […]

SNB-19 = experiment: NCI tumor cell line screen (SRB assay); parameters: activity: dose or concentration left out as unconfirmed; settings: Homo sapiens, read-out: PERCENT GROWTH
Protocol: (§1) The National Cancer Institute carried out the studies at the direction of the present inventor.
(§2) In the tests, the National Cancer Institute used the SRB (sulforhodamine B) assay as described by Skehan et al., (Journal of the National Cancer Institute, 82:13, Jul. 4, 1990, 1107-1112). Briefly, the assay is as follows. TCA-fixed cells were stained for 30 minutes with 0.4% (wt/vol) SRB dissolved in 1% acetic acid. At the end of the staining period, SRB was removed and cultures were quickly rinsed four times with 1% acetic acid to remove unbound dye. The acetic acid was poured directly into the culture wells from a beaker. […] Residual wash solution was removed by sharply flicking plates over a sink, which ensured the complete removal of rinsing solution. […] After being rinsed, the cultures were air dried until no standing moisture was visible. Bound dye was solubilized with 10 mM unbuffered Tris base (pH 10.5) for 5 minutes on a gyratory shaker.
(§3) Optical density (OD) was read in either a UVmax microtiter plate reader (Molecular Devices, Menlo Park, Calif.) or a Beckman DU-70 spectrophotometer. For maximum sensitivity, OD was measured at 564 nm. Because readings were linear with dye concentrations only below 1.8 OD units, however, suboptimal wavelengths were generally used, so that all samples in an experiment remained within the linear OD range. With most cell lines, wavelengths of approximately 490-530 nm worked well for this purpose.
(§4) Nine different non-small cell lung carcinoma cell lines, six different colon carcinoma cell lines, six different CNS (central nervous system) carcinoma cell lines, seven different melanoma cell lines, six different ovarian carcinoma cell lines, and eight different renal carcinoma cell lines were tested.

SF-268 = experiment: NCI tumor cell line screen (SRB assay); parameters: activity: dose or concentration left out as unconfirmed; settings: Homo sapiens, read-out: PERCENT GROWTH
Protocol: as §1, §2, §3, §4

HOP-62 = experiment: NCI tumor cell line screen (SRB assay); parameters: activity: dose or concentration left out as unconfirmed; settings: Homo sapiens, read-out: PERCENT GROWTH
Protocol: as §1, §2, §3, §4

NCI-H23 = experiment: NCI tumor cell line screen (SRB assay); parameters: activity: dose or concentration left out as unconfirmed; settings: Homo sapiens, read-out: PERCENT GROWTH
Protocol: as §1, §2, §3, §4

OVCAR-5 = experiment: NCI tumor cell line screen (SRB assay); parameters: activity: dose or concentration left out as unconfirmed; settings: Homo sapiens, read-out: PERCENT GROWTH
Protocol: as §1, §2, §3, §4

OVCAR-3 = experiment: NCI tumor cell line screen (SRB assay); parameters: activity: dose or concentration left out as unconfirmed; settings: Homo sapiens, read-out: PERCENT GROWTH
Protocol: as §1, §2, §3, §4

M14 = experiment: NCI tumor cell line screen (SRB assay); parameters: activity: dose or concentration left out as unconfirmed; settings: Homo sapiens, read-out: PERCENT GROWTH
Protocol: as §1, §2, §3, §4

## CCCCN1C(=O)CC(=O)N(CCCC)C1=S [Compound C1, 4,6(1H, 5H)-pyrimidinedione, 1,3-dibutyldihydro-2-thioxo]
Breast tumor; 75 μg/ml
  # responsive tumors/total # evaluated: 3/8
Breast tumor; 100 μg/ml
  # responsive tumors/total # evaluated: 4/8
Breast tumor; 125 μg/ml
  # responsive tumors/total # evaluated: 6/8
SNB-19; 10^-3.0 Molar
  activity: -54%
SNB-19; 10^-4.0 Molar
  activity at 100 µM: 90%
SNB-19; 10^-5.0 Molar
  activity at 10 µM: 109%
SNB-19; 10^-6.0 Molar
  activity at 1 µM: 99%
SNB-19; 10^-7.0 Molar
  activity at 0.1 µM: 105%
SF-268; 10^-3.0 Molar
  activity: -58%
SF-268; 10^-4.0 Molar
  activity at 100 µM: 52%
SF-268; 10^-5.0 Molar
  activity at 10 µM: 93%
SF-268; 10^-6.0 Molar
  activity at 1 µM: 100%
SF-268; 10^-7.0 Molar
  activity at 0.1 µM: 98%
HOP-62; 10^-3.0 Molar
  activity: -100%
HOP-62; 10^-4.0 Molar
  activity at 100 µM: 93%
HOP-62; 10^-5.0 Molar
  activity at 10 µM: 96%
HOP-62; 10^-6.0 Molar
  activity at 1 µM: 99%
HOP-62; 10^-7.0 Molar
  activity at 0.1 µM: 98%
NCI-H23; 10^-3.0 Molar
  activity: -62%
NCI-H23; 10^-4.0 Molar
  activity at 100 µM: 63%
NCI-H23; 10^-5.0 Molar
  activity at 10 µM: 98%
NCI-H23; 10^-6.0 Molar
  activity at 1 µM: 103%
NCI-H23; 10^-7.0 Molar
  activity at 0.1 µM: 97%
OVCAR-5; 10^-3.0 Molar
  activity: -97%
OVCAR-5; 10^-4.0 Molar
  activity at 100 µM: 97%
OVCAR-5; 10^-5.0 Molar
  activity at 10 µM: 99%
OVCAR-5; 10^-6.0 Molar
  activity at 1 µM: 98%
OVCAR-5; 10^-7.0 Molar
  activity at 0.1 µM: 102%
OVCAR-3; 10^-3.0 Molar
  activity: -93%
OVCAR-3; 10^-4.0 Molar
  activity at 100 µM: 89%
OVCAR-3; 10^-5.0 Molar
  activity at 10 µM: 110%
OVCAR-3; 10^-6.0 Molar
  activity at 1 µM: 114%
OVCAR-3; 10^-7.0 Molar
  activity at 0.1 µM: 110%
M14; 10^-3.0 Molar
  activity: -100%
M14; 10^-4.0 Molar
  activity at 100 µM: 94%
M14; 10^-5.0 Molar
  activity at 10 µM: 105%
M14; 10^-6.0 Molar
  activity at 1 µM: 100%
M14; 10^-7.0 Molar
  activity at 0.1 µM: 106%
